Numbering of substitutions follows the chain as printed.
Tests used:
[1] = molecular target: T1, androgen receptor (AR) (Homo sapiens, UniProt P10275, Q868H); test: cell-based; details: for IC20: MDA-kb2, read-out: Antiandrogen IC20 (μM) MDA-kb2; for Antiandrogenic activity in the MDA-kb2 assay (in words): MDA-kb2 / 'our assay'; for ERR (environmental relevance ratio): total exposure score / IC20 (MDA-kb2), recalculated using experimental data
T1 construct: MDA-kb2 cells are human breast cancer cells stably transfected with a firefly luciferase reporter gene; endogenous in cells; host or cells: MDA-kb2 (human breast cancer cells)
T1 sequence (P10275 1-920 Q868H): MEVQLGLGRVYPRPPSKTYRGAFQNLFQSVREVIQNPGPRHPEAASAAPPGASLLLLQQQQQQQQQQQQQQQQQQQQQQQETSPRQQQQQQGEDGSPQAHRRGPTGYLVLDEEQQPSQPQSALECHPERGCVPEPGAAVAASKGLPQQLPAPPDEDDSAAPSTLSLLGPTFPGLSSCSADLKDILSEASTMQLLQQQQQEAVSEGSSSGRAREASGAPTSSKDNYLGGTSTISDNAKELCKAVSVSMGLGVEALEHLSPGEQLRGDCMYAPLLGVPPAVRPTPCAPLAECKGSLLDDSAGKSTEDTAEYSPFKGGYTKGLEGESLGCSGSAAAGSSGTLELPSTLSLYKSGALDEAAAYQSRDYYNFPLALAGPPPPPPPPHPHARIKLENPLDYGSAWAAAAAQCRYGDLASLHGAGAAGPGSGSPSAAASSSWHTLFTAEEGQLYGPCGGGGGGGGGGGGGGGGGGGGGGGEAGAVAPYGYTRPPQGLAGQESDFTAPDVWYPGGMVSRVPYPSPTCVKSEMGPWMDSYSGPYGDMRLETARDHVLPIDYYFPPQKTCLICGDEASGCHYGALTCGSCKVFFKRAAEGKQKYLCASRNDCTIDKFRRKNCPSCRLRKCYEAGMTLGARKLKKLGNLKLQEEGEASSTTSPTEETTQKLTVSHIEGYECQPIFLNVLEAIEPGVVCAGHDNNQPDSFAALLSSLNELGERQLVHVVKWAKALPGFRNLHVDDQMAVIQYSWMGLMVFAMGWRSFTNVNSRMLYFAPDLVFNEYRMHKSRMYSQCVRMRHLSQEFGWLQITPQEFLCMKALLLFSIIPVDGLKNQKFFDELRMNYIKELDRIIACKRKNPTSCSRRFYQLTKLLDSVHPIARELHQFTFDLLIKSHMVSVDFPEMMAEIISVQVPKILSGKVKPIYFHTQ
Procedure: (§1) MDA-kb2 cells are human breast cancer cells stably transfected with a firefly luciferase reporter gene that is driven by an androgen-response element–containing promoter ([Wilson et al. 2002]). Details of the modified assay were published previously ([Ermler et al. 2010]). Briefly, cells were seeded at a concentration of 1 × 10^5 cells/mL in phenol red–free Leibowitz-15 medium (Invitrogen Ltd., Paisley, UK) containing 10% (charcoal-stripped) fetal calf serum (Invitrogen Ltd.) in white luminometer plates and allowed to attach for 24 hr. Cells were then exposed to eight serial dilutions of selected pesticides with or without DHT (0.25 nM). After 24 hr, luciferase activity was determined with SteadyGlo assay reagent (Promega UK Ltd., Southampton, Hampshire, UK) and measured in a plate reader (FLUOstar Optima, BMG Labtech GmbH, Offenburg, Germany). […] All concentrations were tested in duplicate over two plates, and each pesticide was measured at least twice in separate experiments. For comparative purposes, luminescence was normalized to DHT alone at coexposure concentration (maximum response, 100%) and solvent-only (ethanol) controls (minimum response, 0%). […] Pesticides were initially tested over a concentration range of 0.64 nM–50 μM (5× dilutions) as a range-finding exercise. Subsequently, the concentration ranges were modified to reflect the potency and toxicity of each individual compound. […] Sixty percent of the pesticides were repeat tested using the same product but with new stock solutions and by a different experimenter.
(§2) To analyze antiandrogenic action, raw luminescence readings were normalized on a plate-by-plate basis to the means of the positive DHT controls (n = 8) and the solvent controls (n = 8) ([Ermler et al. 2010]). […] Specifically, a variety of nonlinear regression models were fitted independently to the same data set, and the best-fitting model was selected using a statistical goodness-of-fit criterion. […] Data considered to be statistically significant at p < 0.05 were analyzed using the best-fit approach as described above. All statistical analysis was performed using SAS statistical software (SAS Institute Inc., Cary, NC, USA). From the best-fitting model, we derived inhibitory concentrations for antiandrogenicity and effect concentrations for cytotoxicity.

[2] = molecular target: T2, androgen receptor (AR) (Homo sapiens, UniProt P10275); test: cell-based; assay type: cell-based; details: for IC20: coincubated with DHT 6.4 nM, 53 hr at 28°C, Neg = no response was observed, read-out: Antiandrogen IC20 (μM) YAS
T2 construct: expressed in transfected cells; host or cells: yeast (YAS strain)
T2 sequence (P10275 1-920): T1 sequence (P10275 1-920 Q868H) with H868Q
Procedure: (§3) Briefly, stimulation of the transfected AR causes a color change in the media, which is measured by absorbance at 540 nm (Labsystems Multiskan Multisoft, Vienna, VA, USA). Plates were also measured at 620 nm to measure cell growth (turbidity) to check for any cytotoxic effects that may have occurred. […] Incubation time was 53 hr at 28°C. […] Pesticide serial dilutions were tested in duplicate over two plates and were tested in two separate experiments.
Specifically, a variety of nonlinear regression models were fitted independently to the same data set, and the best-fitting model was selected using a statistical goodness-of-fit criterion. […] Data considered to be statistically significant at p < 0.05 were analyzed using the best-fit approach as described above. All statistical analysis was performed using SAS statistical software (SAS Institute Inc., Cary, NC, USA). From the best-fitting model, we derived inhibitory concentrations for antiandrogenicity and effect concentrations for cytotoxicity.

[3] = test system: MDA-kb2 cells; details: for Cytotoxic EC20 (μM) MDA-kb2: EC20 = concentration that produces a 20% effect
Procedure: as §1, §2

[4] = test system: yeast; test: YAS, cytotoxicity (turbidity at 620 nm); assay type: cell-based; details: for Cytotoxic EC20 (μM) YAS: EC20 = concentration that produces a 20% effect, yeast turbidity
Procedure: as §3, with “The methods for the YAS have been described previously ([Sohoni and Sumpter 1998]). Briefly,” for “Briefly,”, “occurred. Pesticides were coincubated with DHT (6.4 nM).” for “occurred.”

[5] = molecular target: T1, androgen receptor (AR); assay type: cell-based; details: androgenic in the absence of DHT; Neg = no response was observed
Procedure: as §1, §2

[6] = cited from earlier work; for Parent compound remaining on food commodities: stable on food commodities, ref EFSA 2007, 2010a, 2010b
[7] = test system: aromatase; design: method as in Vinggaard et al. 2000; details: human placental microsomes; ref Vinggaard et al. 2000; cited from earlier work
[8] = design: method as in Lambright et al. 2000; Taxvig et al. 2007; details: ref Lambright et al. 2000; Taxvig et al. 2007; cited from earlier work
[9] = test system: rats; details: 12 mg/kg body weight/day, ref EFSA 2005; cited from earlier work
[10] = test system: adult male rats; details: 90 days, ref Ngoula et al. 2007, cited from earlier work

Compound: COc1ccc(C(=CC(=O)N2CCOCC2)c2ccc(Cl)cc2)cc1OC [Dimethomorph]
- IC20 [1]: 0.263 µM
- Antiandrogenic activity in the MDA-kb2 assay (in words) [1]: antiandrogenic
- ERR (environmental relevance ratio) [1]: 45.6
- IC20 [2]: 38.5 µM
- Cytotoxic EC20 (μM) MDA-kb2 [3]: > 25 µM
- Cytotoxic EC20 (μM) YAS [4]: > 50 µM
- Androgen EC20 (μM) MDA-kb2 [5]: Neg
- Parent compound remaining on food commodities [6]: > 70%

Compound: CCOc1ccc2c(c1)C(C)=CC(C)(C)N2 [Ethoxyquin]
- IC20 [1]: 10.7 µM
- Antiandrogenic activity in the MDA-kb2 assay (in words) [1]: in vitro AR antagonists
- ERR (environmental relevance ratio) [1]: 0.75
- IC20 [2]: 11.1 µM
- Cytotoxic EC20 (μM) MDA-kb2 [3]: > 50 µM
- Cytotoxic EC20 (μM) YAS [4]: > 200 µM
- Androgen EC20 (μM) MDA-kb2 [5]: Neg

Compound: CC1(C(=O)Nc2ccc(O)c(Cl)c2Cl)CCCCC1 [Fenhexamid]
- Cytotoxic EC20 (μM) MDA-kb2 [3]: 21.6 µM
- Parent compound remaining on food commodities [6]: > 70%

Compound: N#Cc1c[nH]cc1-c1cccc2c1OC(F)(F)O2 [Fludioxonil]
- Cytotoxic EC20 (μM) MDA-kb2 [3]: 28.5 µM
- Cytotoxic EC20 (μM) YAS [4]: > 160 µM
- Parent compound remaining on food commodities [6]: > 70%

Compound: C=CCOC(Cn1ccnc1)c1ccc(Cl)cc1Cl (centres unmarked) [Imazalil]
- Cytotoxic EC20 (μM) MDA-kb2 [3]: 19.0 µM
- Aromatase inhibition [7]: inhibited aromatase

Compound: CON(C)C(=O)Nc1ccc(Cl)c(Cl)c1 [Linuron]
- Cytotoxic EC20 (μM) MDA-kb2 [3]: > 50 µM
- In vivo antiandrogen (in words) [8]: known in vivo antiandrogens

Compound: CCN(CC)c1nc(C)cc(OP(=S)(OC)OC)n1 [Pirimiphos-methyl]
- Cytotoxic EC20 (μM) MDA-kb2 [3]: > 50 µM
- Cytotoxic EC20 (μM) YAS [4]: > 200 µM
- Testicular effect of maternal and postnatal exposure [9]: testicular tubular atrophy
- Unchanged parent compound on stored grain ([6]; stored grain, < 24 weeks, ref EFSA 2005): 70%
- Fertility ([10]; 125 mg/kg body weight/day): decreased fertility
- Sperm density and mobility ([10]; 125 mg/kg body weight/day): decreased sperm density and mobility
- Testicular atrophy, lowest observed adverse effect level [10]: 41.67 mg/kg body weight/day

Compound: CCCN(CCOc1c(Cl)cc(Cl)cc1Cl)C(=O)n1ccnc1 [Prochloraz]
- Cytotoxic EC20 (μM) MDA-kb2 [3]: 12.5 µM
- Aromatase inhibition [7]: inhibited aromatase

Compound: CC12CC1(C)C(=O)N(c1cc(Cl)cc(Cl)c1)C2=O (centres unmarked) [Procymidone, reference compound]
- IC50 ([1]; MDA-kb2, internal quality control for antiandrogenicity): 0.53 µM
- IC20 [1]: 0.163 µM
- Antiandrogenic activity in the MDA-kb2 assay (in words) [1]: in vitro AR antagonists
- ERR (environmental relevance ratio) [1]: 202.5
- IC20 [2]: 0.956 µM
- Cytotoxicity in the MDA-kb2 assay (in words) [3]: nontoxic
- Cytotoxic EC20 (μM) MDA-kb2 [3]: > 50 µM
- Cytotoxic EC20 (μM) YAS [4]: > 160 µM
- Androgen EC20 (μM) MDA-kb2 [5]: Neg

Compound: CC(C)(C)C(O)(CCc1ccc(Cl)cc1)Cn1cncn1 (centres unmarked) [Tebuconazole]
- Cytotoxic EC20 (μM) MDA-kb2 [3]: 38.9 µM
- In vivo antiandrogen (in words) [8]: known in vivo antiandrogens

Compound: Cc1ccc(N(SC(F)(Cl)Cl)S(=O)(=O)N(C)C)cc1 [Tolylfluanid]
- Antiandrogen IC20 (μM) MDA-kb2 [1]: Neg
- Antiandrogenic activity in the MDA-kb2 assay (in words) [1]: lacked activity
- Antiandrogenic activity in the YAS (in words) ([2]; YAS): antiandrogenic
- IC20 [2]: 0.234 µM
- Cytotoxicity in the MDA-kb2 assay (in words) [3]: cytotoxic
- Cytotoxic EC20 (μM) MDA-kb2 [3]: 8.09 µM
- Cytotoxic EC20 (μM) YAS [4]: 1.14 µM
- Cytotoxicity in the YAS assay (in words) ([4]; YAS): cytotoxic
- Androgen EC20 (μM) MDA-kb2 [5]: Neg

Compound: CCCC1COC(Cn2cncn2)(c2ccc(Cl)cc2Cl)O1 (centres unmarked) [propiconazole]
- Aromatase inhibition [7]: inhibited aromatase

Compound: CC(C)(C)C(=O)C(Oc1ccc(Cl)cc1)n1cncn1 (centres unmarked) [triadimefon]
- Aromatase inhibition [7]: inhibited aromatase

Compound: CC(C)(C)C(O)C(Oc1ccc(Cl)cc1)n1cncn1 (centres unmarked) [triadimenol]
- Aromatase inhibition [7]: inhibited aromatase

Source: article PMC3114813 (Environmental Health Perspectives, 2011)
